Tests used:
[1] = test system: KB; assay: Antiproliferative activity against human KB cells assessed as inhibition of cell growth under hypoxia condition; assay type: functional, cell-based
[2] = Ratio of IC50 for antiproliferative activity against human Bel-7402 cells assessed as inhibition of cell growth under normoxia condition to IC50 for antiproliferative activity against human Bel-7402 cells assessed as inhibition of cell growth under hypoxia condition; assay type: functional
[3] = Ratio of IC50 for antiproliferative activity against human HL-60 cells assessed as inhibition of cell growth under normoxia condition to IC50 for antiproliferative activity against human HL-60 cells assessed as inhibition of cell growth under hypoxia condition; assay type: functional
[4] = Ratio of IC50 for antiproliferative activity against human MCF7 cells assessed as inhibition of cell growth under normoxia condition to IC50 for antiproliferative activity against human MCF7 cells assessed as inhibition of cell growth under hypoxia condition; assay type: functional
[5] = Ratio of IC50 for antiproliferative activity against human PC-3 cells assessed as inhibition of cell growth under normoxia condition to IC50 for antiproliferative activity against human PC-3 cells assessed as inhibition of cell growth under hypoxia condition; assay type: functional
[6] = Ratio of IC50 for antiproliferative activity against human Eca-109 cells assessed as inhibition of cell growth under normoxia condition to IC50 for antiproliferative activity against human Eca-109 cells assessed as inhibition of cell growth under hypoxia condition; assay type: functional
[7] = test system: HCT-116; assay: Antiproliferative activity against human HCT-116 cells assessed as inhibition of cell growth under hypoxic condition by MTT assay; assay type: functional, cell-based
[8] = test system: NCI-H460; assay: Antiproliferative activity against human NCI-H460 cells assessed as inhibition of cell growth under hypoxic condition by MTT assay; assay type: functional, cell-based
[9] = test system: MCF7; assay: Antiproliferative activity against human MCF7 cells assessed as inhibition of cell growth under hypoxic condition by MTT assay; assay type: functional, cell-based
[10] = test system: MCF7; assay: Antiproliferative activity against human MCF7 cells assessed as inhibition of cell growth measured after 72 hrs by fluorescence based assay; assay type: functional; conditions: MCF7, 72 h
[11] = test system: K562; assay: Antiproliferative activity against human K562 cells assessed as inhibition of cell growth measured after 72 hrs by fluorescence based assay; assay type: functional; conditions: K562, 72 h

## CCCOCNc1n[n+]([O-])c2ccccc2[n+]1[O-]
[1]
  IC50: 3.74 µM

## CCCCOCNc1n[n+]([O-])c2ccccc2[n+]1[O-]
[1]
  IC50: 2.32 µM

## CCCCCOCNc1n[n+]([O-])c2ccccc2[n+]1[O-]
[1]
  IC50: 2.9 µM

## CC(C)CCOCNc1n[n+]([O-])c2ccccc2[n+]1[O-]
[1]
  IC50: 2.11 µM

## [O-][n+]1nc(NCOC2CCCCC2)[n+]([O-])c2ccccc21
[1]
  IC50: 1.2 µM

## CCCCCCCOCNc1n[n+]([O-])c2ccccc2[n+]1[O-]
[1]
  IC50: 3.49 µM

## [O-][n+]1nc(NCOCc2ccccc2)[n+]([O-])c2ccccc21
[1]
  IC50: 4.14 µM

## [O-][n+]1nc(NCOCc2ccc(Cl)cc2)[n+]([O-])c2ccccc21
[1]
  IC50: 2.19 µM

## CC(OCNc1n[n+]([O-])c2ccccc2[n+]1[O-])c1ccccc1 (stereo not drawn)
[1]
  IC50: 2.81 µM

## O=[N+]([O-])c1cccc(COCNc2n[n+]([O-])c3ccccc3[n+]2[O-])c1
[1]
  IC50: 3.44 µM

## CCCOCNc1n[n+]([O-])c2cc(OC)ccc2[n+]1[O-]
[1]
  IC50: 2.54 µM

## CCCCCOCNc1n[n+]([O-])c2cc(OC)ccc2[n+]1[O-]
[1]
  IC50: 2.51 µM

## COc1ccc2c(c1)[n+]([O-])nc(NCOCc1ccccc1)[n+]2[O-]
[1]
  IC50: 4.47 µM

## [O-][n+]1nc(NCc2ccccc2)[n+]([O-])c2ccccc21
[2]
  Ratio IC50: 2.8
[3]
  Ratio IC50: 4.2
[4]
  Ratio IC50: 1.9
[5]
  Ratio IC50: 2.3
[6]
  Ratio IC50: 5.1

## CCNc1n[n+]([O-])c2ccccc2[n+]1[O-]
[2]
  Ratio IC50: 2.2
[3]
  Ratio IC50: 1.6
[4]
  Ratio IC50: 2.1
[5]
  Ratio IC50: 4.4
[6]
  Ratio IC50: 5.4

## CCNc1n[n+]([O-])c2cc(Cl)ccc2[n+]1[O-]
[2]
  Ratio IC50: 2.4
[3]
  Ratio IC50: 5.1
[4]
  Ratio IC50: 3.84
[6]
  Ratio IC50: 2.7

## CCNc1n[n+]([O-])c2cc(OC)ccc2[n+]1[O-]
[2]
  Ratio IC50: 1.07
[5]
  Ratio IC50: 1.2
[6]
  Ratio IC50: 1.12

## [O-][n+]1nc(Nc2ccccc2)[n+]([O-])c2ccccc21
[2]
  Ratio IC50: 2
[3]
  Ratio IC50: 2.5
[4]
  Ratio IC50: 2.1
[5]
  Ratio IC50: 2.3
[6]
  Ratio IC50: 4.1

## [O-][n+]1nc(NC2CCCCC2)[n+]([O-])c2ccccc21
[2]
  Ratio IC50: 1.1
[3]
  Ratio IC50: 4.1
[4]
  Ratio IC50: 1.9
[5]
  Ratio IC50: 1.5
[6]
  Ratio IC50: 2.8

## O=C(NCCCCCNc1n[n+]([O-])c2ccccc2[n+]1[O-])C(F)(F)F
[7]
  IC50: 11.7 µM
[8]
  IC50: 11.7 µM
[9]
  IC50: 11.7 µM

## O=C(NCCCCNc1n[n+]([O-])c2ccccc2[n+]1[O-])C(F)(F)F
[7]
  IC50: 11.7 µM
[8]
  IC50: 11.7 µM
[9]
  IC50: 11.7 µM

## CCN(CC)c1nc(=O)n(-c2ccccc2)nc1-c1ccccc1O
[10]
  IC50: 3.5 µM
[11]
  IC50: 3.5 µM

## O=[N+]([O-])c1ccc2c(c1)[n+]([O-])nc(NC1CCCCC1)[n+]2[O-]
[2]
  Ratio IC50: 1.68
[5]
  Ratio IC50: 1.07
[6]
  Ratio IC50: 1.6

## NC(CCCCNc1nc(=O)n(-c2ccccc2)nc1-c1ccccc1O)C(=O)O (stereo not drawn)
[10]
  IC50: 3.5 µM
[11]
  IC50: 3.5 µM

## Nc1nc(=O)n(-c2ccccc2)nc1-c1ccccc1O
[10]
  IC50: 3.5 µM
[11]
  IC50: 3.5 µM

## NCCCCNc1n[n+]([O-])c2ccccc2[n+]1[O-]
[7]
  IC50: 11.7 µM
[8]
  IC50: 11.7 µM
[9]
  IC50: 11.7 µM

## NCCCCNc1nc(=O)n(-c2ccccc2)nc1-c1ccccc1O
[10]
  IC50: 3.5 µM
[11]
  IC50: 3.5 µM

## O=C(NCCCNc1n[n+]([O-])c2ccccc2[n+]1[O-])C(F)(F)F
[7]
  IC50: 11.7 µM
[8]
  IC50: 11.7 µM
[9]
  IC50: 11.7 µM

## [O-][n+]1nc(NCCNc2n[n+]([O-])c3ccccc3[n+]2[O-])nc2ccccc21
[7]
  IC50: 11.7 µM
[8]
  IC50: 11.7 µM
[9]
  IC50: 11.7 µM

## Cc1ccc2c(c1)[n+]([O-])nc(Nc1ccccc1)[n+]2[O-]
[2]
  Ratio IC50: 2.07
[3]
  Ratio IC50: 1.01
[4]
  Ratio IC50: 2.19
[5]
  Ratio IC50: 1.2
[6]
  Ratio IC50: 5.31

## O=c1nc(N2CCCCC2)c(-c2ccccc2O)nn1-c1ccccc1
[10]
  IC50: 3.5 µM
[11]
  IC50: 3.5 µM

Source: ChEMBL document CHEMBL5260813, “An overview on the recent developments of 1,2,4-triazine derivatives as anticancer compounds” (Eur J Med Chem, 2017)
